Measured values taken from patent US20110039721A1, “METHOD FOR PREDICTION ABOUT CARCINOGENICITY OF SUBSTANCE IN RODENT” (Chemicals Evaluation and Research Institute, priority 2007, published 2011).

Test system: mRNA expressed from the genes (A) to (D) in rat liver
Assay: Behavior of genes (mRNA expression level, oligo-DNA microarray) in rat liver after 28-day oral administration
Format: in vivo
Experimental: A test solution was prepared by dissolving each of the carcinogens and the non-carcinogens shown in Tables 2 to 6 in the corresponding solvent shown in Tables 2 to 6. Each of the thus prepared test solutions and the solvents used for the preparation was administered by oral gavage to rats in each group. As the rats, male rats (F344 SPF rats) at 5 weeks of age obtained from Charles River Laboratories Japan, Inc. were used. The animals were divided into groups, each containing four individuals. The volume of the solvent administered to the vehicle control group was set to the same volume as that of the test solution administered to the carcinogen administration group or the non-carcinogen administration group. The administration of the test solution or the solvent was performed once daily for 28 days. Apiece was excised from the liver of each of the rats after a lapse of 28 days from the initiation of the administration, and the total RNA was extracted and purified.
The expression level of mRNA was compared between each of the chemical substance administration groups and the corresponding vehicle control group, and genes that satisfy the requirements described in (A) to (D) were selected, respectively.
The case where the expression level of mRNA in the carcinogen administration group or the non-carcinogen administration group is 1.5 times or more or 1/1.5 or less of the expression level of the corresponding mRNA expressed in the control group was determined to be significant. In this connection, the determination as to whether or not the change is significant was performed by taking into consideration the direction of increase or decrease in the expression level. In the case where the direction of increase or decrease is different as compared with the case where another carcinogen was administered, the change was determined to be not significant.

[1] = gene group (A), Unigene No. Rn.167075
[2] = gene group (C), Unigene No. Rn.120914
[3] = (C), Unigene Rn.120914, defined direction +, rat liver, oral once daily 28 days

O=C1O[C@H]([C@@H](O)CO)C(O)=C1O [TS010, L-Ascorbic acid]
Behavior of gene caused by administration of chemical substance, Gene No. 4846 (gene group (A), Unigene No. Rn.144554): − | Behavior of gene caused by administration of chemical substance, Gene No. 2026 [1]: − | Behavior of gene caused by administration of chemical substance, Gene No. 4218 [1]: − | Behavior of gene caused by administration of chemical substance, Gene No. 6182 (gene group (A), Unigene No. Rn.5834): − | Behavior of gene caused by administration of chemical substance, Gene No. 5600 (gene group (A), Unigene No. Rn.9836): − | Behavior of gene caused by administration of chemical substance, Gene No. 1494 (gene group (B), Unigene No. Rn.1430): − | Behavior of gene caused by administration of chemical substance, Gene No. 2045 (gene group (B), Unigene No. Rn.19329): − | Behavior of gene caused by administration of chemical substance, Gene No. 2203 (gene group (B), Unigene No. Rn.21240): − | Behavior of gene caused by administration of chemical substance, Gene No. 533 (gene group (C), Unigene No. Rn.106184): − | Behavior of gene caused by administration of chemical substance, Gene No. 725 (gene group (C), Unigene No. Rn.108075): − | Behavior of gene caused by administration of chemical substance, Gene No. 1163 (gene group (C), Unigene No. Rn.11766): − | Behavior of gene caused by administration of chemical substance, Gene No. 4973 (gene group (C), Unigene No. Rn.118529): − | Behavior of gene caused by administration of chemical substance, Gene No. 4095 (gene group (C), Unigene No. Rn.119024): − | Behavior of gene caused by administration of chemical substance, Gene No. 1334 [2]: − | Behavior of gene caused by administration of chemical substance, Gene No. 6620 [2]: − | Behavior of gene caused by administration of chemical substance, Gene No. 6303 (gene group (C), Unigene No. Rn.123063): − | Behavior of gene caused by administration of chemical substance, Gene No. 5878 (gene group (C), Unigene No. Rn.143213): − | Behavior of gene caused by administration of chemical substance, Gene No. 1131 (gene group (C), Unigene No. Rn.144946): + | Behavior of gene caused by administration of chemical substance, Gene No. 1562 (gene group (C), Unigene No. Rn.14744): − | Behavior of gene caused by administration of chemical substance, Gene No. 1741 (gene group (C), Unigene No. Rn.1647): − | Behavior of gene caused by administration of chemical substance, Gene No. 893 (gene group (C), Unigene No. Rn.164817): − | Behavior of gene caused by administration of chemical substance, Gene No. 6026 (gene group (C), Unigene No. Rn.167685): − | Behavior of gene caused by administration of chemical substance, Gene No. 154 (gene group (C), Unigene No. Rn.185941): − | Behavior of gene caused by administration of chemical substance, Gene No. 1993 (gene group (C), Unigene No. Rn.18728): − | Behavior of gene caused by administration of chemical substance, Gene No. 813 (gene group (C), Unigene No. Rn.201760): − | Behavior of gene caused by administration of chemical substance, Gene No. 2494 (gene group (C), Unigene No. Rn.23969): − | Behavior of gene caused by administration of chemical substance, Gene No. 2546 (gene group (C), Unigene No. Rn.24561): − | Behavior of gene caused by administration of chemical substance, Gene No. 3776 (gene group (C), Unigene No. Rn.43232): − | Behavior of gene caused by administration of chemical substance, Gene No. 3929 (gene group (C), Unigene No. Rn.4620): − | Behavior of gene caused by administration of chemical substance, Gene No. 1119 (gene group (C), Unigene No. Rn.9757): − | Behavior of gene caused by administration of chemical substance, Gene No. 6742 (gene group (C), Unigene No. Rn.9779): − | Behavior of gene caused by administration of chemical substance, Gene No. 5634 (gene group (C), Unigene No. Rn.9862): − | Behavior of gene caused by administration of chemical substance, Gene No. 5726 (gene group (D), Unigene No. Rn.9939): −

CC(C)[N+](=O)[O-] [TS013, 2-Nitropropane]
Behavior of gene caused by administration of chemical substance, Gene No. 4846 ((A), Unigene Rn.144554, defined direction +, rat liver, oral once daily 28 days): + | Behavior of gene caused by administration of chemical substance, Gene No. 4218 ((A), Unigene Rn.167075, defined direction +, rat liver, oral once daily 28 days, significant = 1.5 times or more or 1/1.5 or less of control): + | Behavior of gene caused by administration of chemical substance, Gene No. 2026 ((A), Unigene Rn.167075, defined direction −, rat liver, oral once daily 28 days): + | Behavior of gene caused by administration of chemical substance, Gene No. 6182 ((A), Unigene Rn.5834, defined direction +, rat liver, oral once daily 28 days): + | Behavior of gene caused by administration of chemical substance, Gene No. 5600 ((A), Unigene Rn.9836, defined direction +, rat liver, oral once daily 28 days): + | Behavior of gene caused by administration of chemical substance, Gene No. 1494 ((B), Unigene Rn.1430, defined direction −, rat liver, oral once daily 28 days): + | Behavior of gene caused by administration of chemical substance, Gene No. 2045 ((B), Unigene Rn.19329, defined direction +, rat liver, oral once daily 28 days): − | Behavior of gene caused by administration of chemical substance, Gene No. 2203 ((B), Unigene Rn.21240, defined direction +, rat liver, oral once daily 28 days): − | Behavior of gene caused by administration of chemical substance, Gene No. 533 ((C), Unigene Rn.106184, defined direction +, rat liver, oral once daily 28 days): + | Behavior of gene caused by administration of chemical substance, Gene No. 725 ((C), Unigene Rn.108075, defined direction −, rat liver, oral once daily 28 days): + | Behavior of gene caused by administration of chemical substance, Gene No. 1163 ((C), Unigene Rn.11766, defined direction +, rat liver, oral once daily 28 days): − | Behavior of gene caused by administration of chemical substance, Gene No. 4973 ((C), Unigene Rn.118529, defined direction −, rat liver, oral once daily 28 days): + | Behavior of gene caused by administration of chemical substance, Gene No. 4095 ((C), Unigene Rn.119024, defined direction −, rat liver, oral once daily 28 days): − | Behavior of gene caused by administration of chemical substance, Gene No. 1334 [3]: − | Behavior of gene caused by administration of chemical substance, Gene No. 6620 [3]: − | Behavior of gene caused by administration of chemical substance, Gene No. 6303 ((C), Unigene Rn.123063, defined direction −, rat liver, oral once daily 28 days): + | Behavior of gene caused by administration of chemical substance, Gene No. 5878 ((C), Unigene Rn.143213, defined direction −, rat liver, oral once daily 28 days): − | Behavior of gene caused by administration of chemical substance, Gene No. 1131 ((C), Unigene Rn.144946, defined direction −, rat liver, oral once daily 28 days): − | Behavior of gene caused by administration of chemical substance, Gene No. 1562 ((C), Unigene Rn.14744, defined direction −, rat liver, oral once daily 28 days): + | Behavior of gene caused by administration of chemical substance, Gene No. 1741 ((C), Unigene Rn.1647, defined direction −, rat liver, oral once daily 28 days): − | Behavior of gene caused by administration of chemical substance, Gene No. 893 ((C), Unigene Rn.164817, defined direction +, rat liver, oral once daily 28 days): − | Behavior of gene caused by administration of chemical substance, Gene No. 6026 ((C), Unigene Rn.167685, defined direction −, rat liver, oral once daily 28 days): − | Behavior of gene caused by administration of chemical substance, Gene No. 154 ((C), Unigene Rn.185941, defined direction −, rat liver, oral once daily 28 days): + | Behavior of gene caused by administration of chemical substance, Gene No. 1993 ((C), Unigene Rn.18728, defined direction −, rat liver, oral once daily 28 days): + | Behavior of gene caused by administration of chemical substance, Gene No. 813 ((C), Unigene Rn.201760, defined direction +, rat liver, oral once daily 28 days): − | Behavior of gene caused by administration of chemical substance, Gene No. 2494 ((C), Unigene Rn.23969, defined direction +, rat liver, oral once daily 28 days): − | Behavior of gene caused by administration of chemical substance, Gene No. 2546 ((C), Unigene Rn.24561, defined direction −, rat liver, oral once daily 28 days): − | Behavior of gene caused by administration of chemical substance, Gene No. 3776 ((C), Unigene Rn.43232, defined direction −, rat liver, oral once daily 28 days): − | Behavior of gene caused by administration of chemical substance, Gene No. 3929 ((C), Unigene Rn.4620, defined direction +, rat liver, oral once daily 28 days): − | Behavior of gene caused by administration of chemical substance, Gene No. 1119 ((C), Unigene Rn.9757, defined direction +, rat liver, oral once daily 28 days): − | Behavior of gene caused by administration of chemical substance, Gene No. 6742 ((C), Unigene Rn.9779, defined direction +, rat liver, oral once daily 28 days): − | Behavior of gene caused by administration of chemical substance, Gene No. 5634 ((C), Unigene Rn.9862, defined direction −, rat liver, oral once daily 28 days): − | Behavior of gene caused by administration of chemical substance, Gene No. 5726 ((D), Unigene Rn.9939, defined direction −, rat liver, oral once daily 28 days): −
